The text below walks through data of PubChem BioAssay AID248 (DTP/NCI, 2004).

“And” between values parts separate entries of the source, which are not always exact repeats. Equal values may be shown once. Inconclusive results and toxic doses are left out.

The assay concerns L1210 leukemia ip in BDF1 mice, survival T/C. In words: NCI In Vivo Anticancer Drug Screen. Data for tumor model L1210 Leukemia (intraperitoneal) in B6D2F1 (BDF1) mice. The conditions noted are these: endpoint: mean survival time, higher = longer survival. Put shortly:
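Tumor was transplanted into mice, which were then dosed with test compound or vehicle alone. Survival was recorded for each group, and the treated figure was expressed relative to the control figure.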

Setting [1] is: dose: 100.0 mg/kg/injection, schedule: Q01DX001 (ip), vehicle: Klucel (hydroxypropylcellulose) (HPC).
Setting [2] is: dose: 100.0 mg/kg/injection, schedule: Q01DX009 (ip), vehicle: Klucel (hydroxypropylcellulose) (HPC).
Where [3] appears, read: dose: 100.0 mg/kg/injection, schedule: Q04DX003 (ip), vehicle: Klucel (hydroxypropylcellulose) (HPC).
Where [4] appears, read: dose: 200.0 mg/kg/injection, schedule: Q01DX001 (ip), vehicle: Klucel (hydroxypropylcellulose) (HPC).
Setting [5] is: dose: 200.0 mg/kg/injection, schedule: Q01DX009 (ip), vehicle: Klucel (hydroxypropylcellulose) (HPC).
Where [6] appears, read: dose: 200.0 mg/kg/injection, schedule: Q04DX003 (ip), vehicle: Klucel (hydroxypropylcellulose) (HPC).
The mark [7] stands for this setting: dose: 400.0 mg/kg/injection, schedule: Q01DX001 (ip), vehicle: Klucel (hydroxypropylcellulose) (HPC).
Where [8] appears, read: dose: 400.0 mg/kg/injection, schedule: Q01DX009 (ip), vehicle: Klucel (hydroxypropylcellulose) (HPC).
[9] abbreviates: dose: 400.0 mg/kg/injection, schedule: Q04DX003 (ip), vehicle: Klucel (hydroxypropylcellulose) (HPC).
Where [10] appears, read: dose: 3.12 mg/kg/injection, schedule: Q01DX009 (ip), vehicle: Klucel (hydroxypropylcellulose) (HPC).
[11] abbreviates: dose: 6.25 mg/kg/injection, schedule: Q01DX009 (ip), vehicle: Klucel (hydroxypropylcellulose) (HPC).
[12] abbreviates: dose: 100.0 mg/kg/injection, schedule: Q04DX003 (ip), vehicle: saline with Tween-80.
The mark [13] stands for this setting: dose: 200.0 mg/kg/injection, schedule: Q04DX003 (ip), vehicle: saline with Tween-80.
Setting [14] is: dose: 400.0 mg/kg/injection, schedule: Q04DX003 (ip), vehicle: saline with Tween-80.
Where [15] appears, read: dose: 100.0 mg/kg/injection, schedule: Q01DX009 (ip), vehicle: saline with Tween-80.
Where [16] appears, read: dose: 200.0 mg/kg/injection, schedule: Q01DX009 (ip), vehicle: saline with Tween-80.

In the case of `CC(O)c1cccc(NC(=O)Nc2cccc(C(F)(F)F)c2)c1` (centres undefined), the T/C by setting is: under setting [1], 104 % of control; under setting [2], 100 % of control and 109 % of control; (dose: 100.0 mg/kg/injection, schedule: Q04DX002 (ip), vehicle: Klucel (hydroxypropylcellulose) (HPC)) 110 % of control and 111 % of control; under setting [3], 99 % of control; under setting [4], 98 % of control; under setting [5], 107 % of control and 116 % of control. Also, the T/C reads like this: (dose: 200.0 mg/kg/injection, schedule: Q04DX002 (ip), vehicle: Klucel (hydroxypropylcellulose) (HPC)) 108 % of control; under setting [6], 95 % of control; under setting [7], 98 % of control; under setting [8], 101 % of control and 89 % of control; (dose: 400.0 mg/kg/injection, schedule: Q04DX002 (ip), vehicle: Klucel (hydroxypropylcellulose) (HPC)) 112 % of control and 115 % of control; under setting [9], 103 % of control.
In the case of `CCCCc1ccc(-n2c(C)c(COC(=O)NC)c(COC(=O)NC)c2C)cc1`, the T/C was 122 % of control under setting [10] and 122 % of control under setting [11].
For the compound `Nc1c(-c2ccccc2)[nH][nH]c1=O`, the T/C by setting is: under setting [1], 91 % of control; under setting [2], 92 % of control; under setting [3], 100 % of control; under setting [4], 99 % of control; under setting [5], 92 % of control; under setting [6], 102 % of control. The T/C under setting [7] was 94 % of control, the T/C under setting [8] is 93 % of control and the T/C under setting [9] was 104 % of control.
On to `COc1ccccc1N=NN(C)C`, for which the T/C is 115 % of control (dose: 1.0 mg/kg/injection, schedule: Q01DX009 (ip), vehicle: Klucel (hydroxypropylcellulose) (HPC)); 101 % of control (dose: 3.0 mg/kg/injection, schedule: Q01DX009 (ip), vehicle: Klucel (hydroxypropylcellulose) (HPC)); 100 % of control under setting [10]; 95 % of control (dose: 3.12 mg/kg/injection, schedule: Q04DX003 (ip), vehicle: Klucel (hydroxypropylcellulose) (HPC)); 115 % of control (dose: 6.0 mg/kg/injection, schedule: Q01DX009 (ip), vehicle: Klucel (hydroxypropylcellulose) (HPC)); 108 % of control under setting [11]. The T/C was 109 % of control (dose: 6.25 mg/kg/injection, schedule: Q04DX003 (ip), vehicle: Klucel (hydroxypropylcellulose) (HPC)); 94 % of control (dose: 12.5 mg/kg/injection, schedule: Q01DX009 (ip), vehicle: Klucel (hydroxypropylcellulose) (HPC)); 113 % of control (dose: 12.5 mg/kg/injection, schedule: Q04DX003 (ip), vehicle: Klucel (hydroxypropylcellulose) (HPC)).
Turning to `N/C(=N/N=C/c1ccncc1)N/N=C\c1ccncc1`, the T/C (dose: 30.0 mg/kg/injection, schedule: Q01DX Z (ip), vehicle: carboxymethylcellulose (CMC)) is 89 % of control; the T/C (dose: 30.0 mg/kg/injection, schedule: Q01DX Z (oral), vehicle: carboxymethylcellulose (CMC)) was 106 % of control; the T/C (dose: 60.0 mg/kg/injection, schedule: Q01DX Z (ip), vehicle: carboxymethylcellulose (CMC)) is 87 % of control; the T/C (dose: 60.0 mg/kg/injection, schedule: Q01DX Z (oral), vehicle: carboxymethylcellulose (CMC)) was 95 % of control; the T/C (dose: 120.0 mg/kg/injection, schedule: Q01DX Z (ip), vehicle: carboxymethylcellulose (CMC)) was 92 % of control; the T/C (dose: 120.0 mg/kg/injection, schedule: Q01DX Z (oral), vehicle: carboxymethylcellulose (CMC)) is 97 % of control and 123 % of control. The T/C is 101 % of control and 104 % of control (dose: 240.0 mg/kg/injection, schedule: Q01DX Z (oral), vehicle: carboxymethylcellulose (CMC)); 101 % of control (dose: 480.0 mg/kg/injection, schedule: Q01DX Z (oral), vehicle: carboxymethylcellulose (CMC)).
For `COc1ccc(C2CCCCC2O)cc1` (centres undefined), the T/C is 94 % of control under setting [2]; 97 % of control under setting [3]; 99 % of control under setting [5]; 91 % of control under setting [6]; 99 % of control under setting [8]; 93 % of control under setting [9].
Turning to `C=CCNCC(O)c1ccccc1` (centres undefined), the T/C (dose: 25.0 mg/kg/injection, schedule: Q01DX009 (ip), vehicle: Klucel (hydroxypropylcellulose) (HPC)) is 90 % of control; the T/C (dose: 50.0 mg/kg/injection, schedule: Q01DX009 (ip), vehicle: Klucel (hydroxypropylcellulose) (HPC)) is 95 % of control; the T/C under setting [2] is 95 % of control and 103 % of control; the T/C under setting [3] was 95 % of control; the T/C under setting [6] was 101 % of control; the T/C under setting [9] was 95 % of control.
Consider `Cc1[nH]c(=O)[nH]c(=O)c1CN1CCCCC1`, for which the T/C runs as follows: under setting [12], 100 % of control; under setting [13], 106 % of control; under setting [14], 93 % of control.
`Cc1cccc(SC(=O)Cc2ccc([N+](=O)[O-])cc2)c1`: the T/C was 91 % of control under setting [15]; 109 % of control under setting [12]; 96 % of control under setting [16]; 102 % of control under setting [13]; 119 % of control under setting [14].
`CN(Cc1cnc2nc(N)nc(N)c2n1)c1c(Cl)cc(C(=O)NC(CCC(=O)O)C(=O)O)cc1Br` (centres undefined): the T/C (dose: 12.5 mg/kg/injection, schedule: Q01DX Z (ip), vehicle: saline) was 162 % of control; the T/C (dose: 25.0 mg/kg/injection, schedule: Q01DX Z (ip), vehicle: saline) was 196 % of control; the T/C (dose: 50.0 mg/kg/injection, schedule: Q01DX Z (ip), vehicle: saline) is 241 % of control and 267 % of control; the T/C (dose: 200.0 mg/kg/injection, schedule: Q01DX Z (ip), vehicle: saline) was 101 % of control.
As for `O=C(/C=C/c1ccccc1)Nc1cc(Cl)ccc1Cl`, the T/C under setting [2] is 110 % of control; the T/C under setting [3] was 97 % of control; the T/C under setting [5] is 114 % of control; the T/C under setting [6] is 89 % of control; the T/C under setting [8] is 96 % of control; the T/C under setting [9] is 94 % of control.
Take `Cc1ccc2c(ccc(/C=C/c3ccnc4c(O)cccc34)[n+]2C)c1`: the T/C reads like this: (dose: 25.0 mg/kg/injection, schedule: Q01DX001 (ip), vehicle: saline) 99 % of control; (dose: 35.0 mg/kg/injection, schedule: Q01DX001 (ip), vehicle: saline) 111 % of control; (dose: 55.0 mg/kg/injection, schedule: Q01DX001 (ip), vehicle: saline) 119 % of control; (dose: 85.0 mg/kg/injection, schedule: Q01DX001 (ip), vehicle: saline) 123 % of control; (dose: 132.0 mg/kg/injection, schedule: Q01DX001 (ip), vehicle: saline) 115 % of control and 121 % of control; (dose: 198.0 mg/kg/injection, schedule: Q01DX001 (ip), vehicle: saline) 117 % of control.
As to `OC(O)C(F)(F)F`, the T/C reads like this: under setting [15], 109 % of control; under setting [12], 111 % of control; under setting [16], 121 % of control; under setting [13], 104 % of control; (dose: 400.0 mg/kg/injection, schedule: Q01DX009 (ip), vehicle: saline with Tween-80) 97 % of control; under setting [14], 105 % of control.
With `O=C(Nc1cccc(Cl)c1)Oc1c(Cl)cc(S(=O)(=O)F)cc1Cl`, the T/C by setting is: (dose: 25.0 mg/kg/injection, schedule: Q01DX009 (ip), vehicle: saline with Tween-80) 97 % of control; (dose: 25.0 mg/kg/injection, schedule: Q04DX002 (ip), vehicle: saline with Tween-80) 101 % of control; (dose: 50.0 mg/kg/injection, schedule: Q01DX009 (ip), vehicle: saline with Tween-80) 93 % of control; (dose: 50.0 mg/kg/injection, schedule: Q04DX002 (ip), vehicle: saline with Tween-80) 93 % of control; under setting [15], 100 % of control; (dose: 100.0 mg/kg/injection, schedule: Q04DX002 (ip), vehicle: saline with Tween-80) 96 % of control and 90 % of control.
As for `O=[N+]([O-])c1cccc(C=Nc2ccccc2F)c1`, the T/C runs as follows: under setting [2], 94 % of control; under setting [5], 98 % of control; under setting [8], 98 % of control.
Turning to `CCOc1ccn(C2OC(COC(C)=O)C(OC(C)=O)C(OC(C)=O)C2Nc2ccc([N+](=O)[O-])cc2[N+](=O)[O-])c(=O)n1` (centres undefined), the T/C (dose: 100.0 mg/kg/injection, schedule: Q01DX001 (ip), vehicle: saline) was 103 % of control; the T/C (dose: 200.0 mg/kg/injection, schedule: Q01DX001 (ip), vehicle: saline) is 100 % of control; the T/C (dose: 400.0 mg/kg/injection, schedule: Q01DX001 (ip), vehicle: saline) was 97 % of control.
